In patent US7807439B2, “Staphylococcus aureus-specific detection media and identifying and/or counting method using same” (Biomerieux S.A., priority 2001, dated 2010):

What follows are compounds tested on S. saprophyticus 064 (assay: Experiment 1: chromogenic α-glucosidase substrates in gelled medium, colony coloration). Details: TI 24 h, substrate 100 mg/l.
Type: cell-based, Staphylococcus saprophyticus
Design: key to I (intensity of coloration): 0 corresponds to a lack of activity; 0.1 corresponds to the presence of a trace of coloration; 0.5 corresponds to the presence of a very pale coloration; 1 corresponds to the presence of a clear coloration of weak intensity; 1.5 corresponds to the presence of a coloration which is intermediate between colorations 1 and 2; 2 corresponds to the presence of a true coloration of medium intensity; 2.5 corresponds to the presence of a coloration which is intermediate between colorations 2 and 3; 3 corresponds to the presence of an intense coloration; 3.5 corresponds to the presence of a coloration which is intermediate between colorations 3 and 4; 4 corresponds to the presence of a very intense coloration; key to C (coloration of the colonies): —: the symbol “−” is synonymous with a lack of colour or intensity
Description: (§1) The α-glucosidase substrates are solubilized in dimethyl sulfoxide at a concentration of 200 g/l. A sufficient volume to obtain a final concentration of substrate of 100 mg/l is added to the four molten media. Microorganisms derived from the bioMérieux internal collection were seeded onto each one of the media, on their own as three dials, using a suspension at 0.5 MacFarland. However, results obtained with microorganisms derived from collections available to the public, ATCC or NCTC for example, would give identical results. The dishes were incubated at 37° C. for 48 hours. The colonies were examined visually after an incubation time of 24 and 48 hours. The coloration and also the intensity of this coloration were noted.
(§2) In table 2 below, as in the tables which will follow, C represents the coloration of the colonies after incubation, I represents the intensity of this coloration, the symbol “−” is synonymous with a lack of colour or intensity, and, finally, TI defines the incubation time. It should be noted that the intensity of the coloration is an arbitrary scale, but which is common to all the biological samples and all the media tested. This scale is valid for this experiment and also for all the experiments which will follow. It can be defined in the following way: • 0 corresponds to a lack of activity, • 0.1 corresponds to the presence of a trace of coloration, • 0.5 corresponds to the presence of a very pale coloration, • 1 corresponds to the presence of a clear coloration of weak intensity, • 1.5 corresponds to the presence of a coloration which is intermediate between colorations 1 and 2, • 2 corresponds to the presence of a true coloration of medium intensity, • 2.5 corresponds to the presence of a coloration which is intermediate between colorations 2 and 3, • 3 corresponds to the presence of an intense coloration • 3.5 corresponds to the presence of a coloration which is intermediate between colorations 3 and 4, • 4 corresponds to the presence of a very intense coloration.
For `OC[C@H]1O[C@H](Oc2c[nH]c3cc(Cl)ccc23)[C@H](O)[C@@H](O)[C@@H]1O` [Pink-a-GLU, 6-Chloro-3-indoxyl-α-D-glucoside], the “C (coloration of the colonies)” value was “—” and the “I (intensity of coloration)” value was 0.

Same assay, conditions: TI 48 h, substrate 100 mg/l
In the case of `OC[C@H]1O[C@H](Oc2c[nH]c3cc(Cl)ccc23)[C@H](O)[C@@H](O)[C@@H]1O` [Pink-a-GLU, 6-Chloro-3-indoxyl-α-D-glucoside], the “C (coloration of the colonies)” value is reported as “—” and the “I (intensity of coloration)” value is reported as 0.

What follows are compounds tested on S. epidermidis 009 in the same assay as above. Details: TI 24 h, substrate 100 mg/l.
Type: cell-based, Staphylococcus epidermidis
Design: key to I (intensity of coloration): 0 corresponds to a lack of activity; 0.1 corresponds to the presence of a trace of coloration; 0.5 corresponds to the presence of a very pale coloration; 1 corresponds to the presence of a clear coloration of weak intensity; 1.5 corresponds to the presence of a coloration which is intermediate between colorations 1 and 2; 2 corresponds to the presence of a true coloration of medium intensity; 2.5 corresponds to the presence of a coloration which is intermediate between colorations 2 and 3; 3 corresponds to the presence of an intense coloration; 3.5 corresponds to the presence of a coloration which is intermediate between colorations 3 and 4; 4 corresponds to the presence of a very intense coloration; key to C (coloration of the colonies): —: the symbol “−” is synonymous with a lack of colour or intensity
Description: as §1, §2
`OC[C@H]1O[C@H](Oc2c[nH]c3cc(Cl)ccc23)[C@H](O)[C@@H](O)[C@@H]1O` [Pink-a-GLU, 6-Chloro-3-indoxyl-α-D-glucoside] was tested, and the “C (coloration of the colonies)” value was “—” and the “I (intensity of coloration)” value was 0.

Same assay, conditions: TI 48 h, substrate 100 mg/l
In the case of `OC[C@H]1O[C@H](Oc2c[nH]c3cc(Cl)ccc23)[C@H](O)[C@@H](O)[C@@H]1O` [Pink-a-GLU, 6-Chloro-3-indoxyl-α-D-glucoside], the “C (coloration of the colonies)” value is reported as “—” and the “I (intensity of coloration)” value is reported as 0.

What follows are compounds tested on S. intermedius 075 in the same assay as above. Details: TI 24 h, substrate 100 mg/l.
Type: cell-based, Staphylococcus intermedius
Design: key to I (intensity of coloration): 0 corresponds to a lack of activity; 0.1 corresponds to the presence of a trace of coloration; 0.5 corresponds to the presence of a very pale coloration; 1 corresponds to the presence of a clear coloration of weak intensity; 1.5 corresponds to the presence of a coloration which is intermediate between colorations 1 and 2; 2 corresponds to the presence of a true coloration of medium intensity; 2.5 corresponds to the presence of a coloration which is intermediate between colorations 2 and 3; 3 corresponds to the presence of an intense coloration; 3.5 corresponds to the presence of a coloration which is intermediate between colorations 3 and 4; 4 corresponds to the presence of a very intense coloration; key to C (coloration of the colonies): —: the symbol “−” is synonymous with a lack of colour or intensity
Description: as §1, §2
With `OC[C@H]1O[C@H](Oc2c[nH]c3cc(Cl)ccc23)[C@H](O)[C@@H](O)[C@@H]1O` [Pink-a-GLU, 6-Chloro-3-indoxyl-α-D-glucoside] the “C (coloration of the colonies)” value was “—” and the “I (intensity of coloration)” value was 0.

Same assay, conditions: TI 48 h, substrate 100 mg/l
With `OC[C@H]1O[C@H](Oc2c[nH]c3cc(Cl)ccc23)[C@H](O)[C@@H](O)[C@@H]1O` [Pink-a-GLU, 6-Chloro-3-indoxyl-α-D-glucoside] the “C (coloration of the colonies)” value was “pink” and the “I (intensity of coloration)” value was 0.5.

What follows are compounds tested on S. aureus 276 in the same assay as above. Details: TI 24 h, substrate 100 mg/l.
Type: cell-based, Staphylococcus aureus
Design: key to I (intensity of coloration): 0 corresponds to a lack of activity; 0.1 corresponds to the presence of a trace of coloration; 0.5 corresponds to the presence of a very pale coloration; 1 corresponds to the presence of a clear coloration of weak intensity; 1.5 corresponds to the presence of a coloration which is intermediate between colorations 1 and 2; 2 corresponds to the presence of a true coloration of medium intensity; 2.5 corresponds to the presence of a coloration which is intermediate between colorations 2 and 3; 3 corresponds to the presence of an intense coloration; 3.5 corresponds to the presence of a coloration which is intermediate between colorations 3 and 4; 4 corresponds to the presence of a very intense coloration
Description: as §1, §2
`OC[C@H]1O[C@H](Oc2c[nH]c3cc(Cl)ccc23)[C@H](O)[C@@H](O)[C@@H]1O` [Pink-a-GLU, 6-Chloro-3-indoxyl-α-D-glucoside] was tested, and the “C (coloration of the colonies)” value was “pink” and the “I (intensity of coloration)” value was 1.5.

Same assay, conditions: TI 48 h, substrate 100 mg/l
For `OC[C@H]1O[C@H](Oc2c[nH]c3cc(Cl)ccc23)[C@H](O)[C@@H](O)[C@@H]1O` [Pink-a-GLU, 6-Chloro-3-indoxyl-α-D-glucoside], the “C (coloration of the colonies)” value was “pink” and the “I (intensity of coloration)” value was 1.5.

The compounds below were run on S. aureus 004 in the same assay as above. Details: TI 24 h, substrate 100 mg/l.
Type: cell-based, Staphylococcus aureus
Design: key to I (intensity of coloration): 0 corresponds to a lack of activity; 0.1 corresponds to the presence of a trace of coloration; 0.5 corresponds to the presence of a very pale coloration; 1 corresponds to the presence of a clear coloration of weak intensity; 1.5 corresponds to the presence of a coloration which is intermediate between colorations 1 and 2; 2 corresponds to the presence of a true coloration of medium intensity; 2.5 corresponds to the presence of a coloration which is intermediate between colorations 2 and 3; 3 corresponds to the presence of an intense coloration; 3.5 corresponds to the presence of a coloration which is intermediate between colorations 3 and 4; 4 corresponds to the presence of a very intense coloration
Description: as §1, §2
In the case of `OC[C@H]1O[C@H](Oc2c[nH]c3cc(Cl)ccc23)[C@H](O)[C@@H](O)[C@@H]1O` [Pink-a-GLU, 6-Chloro-3-indoxyl-α-D-glucoside], the “C (coloration of the colonies)” value is reported as “pink” and the “I (intensity of coloration)” value is reported as 1.

Same assay, conditions: TI 48 h, substrate 100 mg/l
With `OC[C@H]1O[C@H](Oc2c[nH]c3cc(Cl)ccc23)[C@H](O)[C@@H](O)[C@@H]1O` [Pink-a-GLU, 6-Chloro-3-indoxyl-α-D-glucoside] the “C (coloration of the colonies)” value was “pink” and the “I (intensity of coloration)” value was 1.

Each compound was assayed on S. aureus 070 in the same assay as above. Details: TI 24 h, substrate 100 mg/l.
Type: cell-based, Staphylococcus aureus
Design: key to I (intensity of coloration): 0 corresponds to a lack of activity; 0.1 corresponds to the presence of a trace of coloration; 0.5 corresponds to the presence of a very pale coloration; 1 corresponds to the presence of a clear coloration of weak intensity; 1.5 corresponds to the presence of a coloration which is intermediate between colorations 1 and 2; 2 corresponds to the presence of a true coloration of medium intensity; 2.5 corresponds to the presence of a coloration which is intermediate between colorations 2 and 3; 3 corresponds to the presence of an intense coloration; 3.5 corresponds to the presence of a coloration which is intermediate between colorations 3 and 4; 4 corresponds to the presence of a very intense coloration
Description: as §1, §2
`OC[C@H]1O[C@H](Oc2c[nH]c3cc(Cl)ccc23)[C@H](O)[C@@H](O)[C@@H]1O` [Pink-a-GLU, 6-Chloro-3-indoxyl-α-D-glucoside] was tested, and the “C (coloration of the colonies)” value was “pink” and the “I (intensity of coloration)” value was 2.

Same assay, conditions: TI 48 h, substrate 100 mg/l
In the case of `OC[C@H]1O[C@H](Oc2c[nH]c3cc(Cl)ccc23)[C@H](O)[C@@H](O)[C@@H]1O` [Pink-a-GLU, 6-Chloro-3-indoxyl-α-D-glucoside], the “C (coloration of the colonies)” value is reported as “pink” and the “I (intensity of coloration)” value is reported as 2.

These compounds were tested on S. xylosus 008 in the same assay as above. Details: TI 24 h, substrate 100 mg/l.
Type: cell-based, Staphylococcus xylosus
Design: key to I (intensity of coloration): 0 corresponds to a lack of activity; 0.1 corresponds to the presence of a trace of coloration; 0.5 corresponds to the presence of a very pale coloration; 1 corresponds to the presence of a clear coloration of weak intensity; 1.5 corresponds to the presence of a coloration which is intermediate between colorations 1 and 2; 2 corresponds to the presence of a true coloration of medium intensity; 2.5 corresponds to the presence of a coloration which is intermediate between colorations 2 and 3; 3 corresponds to the presence of an intense coloration; 3.5 corresponds to the presence of a coloration which is intermediate between colorations 3 and 4; 4 corresponds to the presence of a very intense coloration; key to C (coloration of the colonies): —: the symbol “−” is synonymous with a lack of colour or intensity
Description: as §1, §2
For `OC[C@H]1O[C@H](Oc2c[nH]c3cc(Cl)ccc23)[C@H](O)[C@@H](O)[C@@H]1O` [Pink-a-GLU, 6-Chloro-3-indoxyl-α-D-glucoside], the “C (coloration of the colonies)” value was “—” and the “I (intensity of coloration)” value was 0.

Same assay, conditions: TI 48 h, substrate 100 mg/l
For `OC[C@H]1O[C@H](Oc2c[nH]c3cc(Cl)ccc23)[C@H](O)[C@@H](O)[C@@H]1O` [Pink-a-GLU, 6-Chloro-3-indoxyl-α-D-glucoside], the “C (coloration of the colonies)” value was “pink” and the “I (intensity of coloration)” value was 0.5.
